{"source": "PubChem BioAssay AID1259407", "about": "(Chemical Carcinogenesis Research Information System (CCRIS), 2018)", "tested_on": "CCRIS mutagenicity, Ames/micronucleus/aberration tests", "experiment": "CCRIS mutagenicity studies", "key": {"[1]": {"settings": "Test System: AMES SALMONELLA TYPHIMURIUM, Strain/Indicator: TA97, Metabolic Activation: NONE, Method: PREINCUBATION"}, "[2]": {"settings": "Test System: AMES SALMONELLA TYPHIMURIUM, Strain/Indicator: TA98, Metabolic Activation: NONE, Method: STANDARD PLATE"}, "[3]": {"settings": "Test System: AMES SALMONELLA TYPHIMURIUM, Strain/Indicator: TA100, Metabolic Activation: NONE, Method: STANDARD PLATE"}}, "note": "Activity calls are given as the source filed them. How the calls were made is not given here.", "data": [{"smiles": "Cc1occc(=O)c1O", "values": [{"measurement": "mutagenic call", "setting": "End Point: IN VIVO MICRONUCLEUS, Test System: BONE MARROW POLYCHROMATIC ERYTHROCYTES, Species: MOUSE, Strain/Sex: DDY/MALE, Route: IP", "value": "active; positive"}, {"measurement": "mutagenic call", "setting": "Test System: AMES SALMONELLA TYPHIMURIUM, Strain/Indicator: TA92, Metabolic Activation: NONE, Method: STANDARD PLATE", "value": "inactive; negative"}, {"measurement": "mutagenic call", "setting": "[1]", "value": "inactive; negative"}, {"measurement": "mutagenic call", "setting": "Test System: AMES SALMONELLA TYPHIMURIUM, Strain/Indicator: TA97, Metabolic Activation: RAT, LIVER, S-9, AROCLOR 1254, Method: PREINCUBATION", "value": "inactive; negative"}, {"measurement": "mutagenic call", "setting": "[2]", "value": "inactive; negative"}, {"measurement": "mutagenic call", "setting": "[3]", "value": "inactive; negative"}, {"measurement": "mutagenic call", "setting": "Test System: AMES SALMONELLA TYPHIMURIUM, Strain/Indicator: TA102, Metabolic Activation: NONE, Method: PREINCUBATION", "value": "inactive; negative"}, {"measurement": "mutagenic call", "setting": "Test System: AMES SALMONELLA TYPHIMURIUM, Strain/Indicator: TA102, Metabolic Activation: RAT, LIVER, S-9, AROCLOR 1254, Method: PREINCUBATION", "value": "inactive; negative"}, {"measurement": "mutagenic call", "setting": "Test System: AMES SALMONELLA TYPHIMURIUM, Strain/Indicator: TA104, Metabolic Activation: NONE, Method: STANDARD PLATE", "value": "inactive; negative"}]}, {"smiles": "Oc1cccc(Nc2ccccc2)c1", "values": [{"measurement": "mutagenic call", "setting": "Test System: AMES SALMONELLA TYPHIMURIUM, Strain/Indicator: TA97, Metabolic Activation: HAMSTER, LIVER, S-9, AROCLOR 1254 (10%), Method: PREINCUBATION", "value": "inactive; negative"}, {"measurement": "mutagenic call", "setting": "Test System: AMES SALMONELLA TYPHIMURIUM, Strain/Indicator: TA97, Metabolic Activation: HAMSTER, LIVER, S-9, AROCLOR 1254 (30%), Method: PREINCUBATION", "value": "inactive; negative"}, {"measurement": "mutagenic call", "setting": "[1]", "value": "inactive; negative"}, {"measurement": "mutagenic call", "setting": "Test System: AMES SALMONELLA TYPHIMURIUM, Strain/Indicator: TA97, Metabolic Activation: RAT, LIVER, S-9, AROCLOR 1254 (10%), Method: PREINCUBATION", "value": "inactive; negative"}, {"measurement": "mutagenic call", "setting": "Test System: AMES SALMONELLA TYPHIMURIUM, Strain/Indicator: TA97, Metabolic Activation: RAT, LIVER, S-9, AROCLOR 1254 (30%), Method: PREINCUBATION", "value": "inactive; negative"}, {"measurement": "mutagenic call", "setting": "Test System: AMES SALMONELLA TYPHIMURIUM, Strain/Indicator: TA98, Metabolic Activation: HAMSTER, LIVER, S-9, AROCLOR 1254 (10%), Method: PREINCUBATION", "value": "inactive; negative"}, {"measurement": "mutagenic call", "setting": "Test System: AMES SALMONELLA TYPHIMURIUM, Strain/Indicator: TA98, Metabolic Activation: HAMSTER, LIVER, S-9, AROCLOR 1254 (30%), Method: PREINCUBATION", "value": "inactive; negative"}, {"measurement": "mutagenic call", "setting": "Test System: AMES SALMONELLA TYPHIMURIUM, Strain/Indicator: TA98, Metabolic Activation: NONE, Method: PREINCUBATION", "value": "inactive; negative"}, {"measurement": "mutagenic call", "setting": "Test System: AMES SALMONELLA TYPHIMURIUM, Strain/Indicator: TA98, Metabolic Activation: RAT, LIVER, S-9, AROCLOR 1254 (10%), Method: PREINCUBATION", "value": "inactive; negative"}, {"measurement": "mutagenic call", "setting": "Test System: AMES SALMONELLA TYPHIMURIUM, Strain/Indicator: TA98, Metabolic Activation: RAT, LIVER, S-9, AROCLOR 1254 (30%), Method: PREINCUBATION", "value": "inactive; negative"}, {"measurement": "mutagenic call", "setting": "Test System: AMES SALMONELLA TYPHIMURIUM, Strain/Indicator: TA100, Metabolic Activation: HAMSTER, LIVER, S-9, AROCLOR 1254 (10%), Method: PREINCUBATION", "value": "inactive; negative"}, {"measurement": "mutagenic call", "setting": "Test System: AMES SALMONELLA TYPHIMURIUM, Strain/Indicator: TA100, Metabolic Activation: HAMSTER, LIVER, S-9, AROCLOR 1254 (30%), Method: PREINCUBATION", "value": "inactive; negative"}, {"measurement": "mutagenic call", "setting": "Test System: AMES SALMONELLA TYPHIMURIUM, Strain/Indicator: TA100, Metabolic Activation: NONE, Method: PREINCUBATION", "value": "inactive; negative"}, {"measurement": "mutagenic call", "setting": "Test System: AMES SALMONELLA TYPHIMURIUM, Strain/Indicator: TA100, Metabolic Activation: RAT, LIVER, S-9, AROCLOR 1254 (10%), Method: PREINCUBATION", "value": "inactive; negative"}, {"measurement": "mutagenic call", "setting": "Test System: AMES SALMONELLA TYPHIMURIUM, Strain/Indicator: TA100, Metabolic Activation: RAT, LIVER, S-9, AROCLOR 1254 (30%), Method: PREINCUBATION", "value": "inactive; negative"}, {"measurement": "mutagenic call", "setting": "Test System: AMES SALMONELLA TYPHIMURIUM, Strain/Indicator: TA1535, Metabolic Activation: HAMSTER, LIVER, S-9, AROCLOR 1254 (10%), Method: PREINCUBATION", "value": "inactive; negative"}, {"measurement": "mutagenic call", "setting": "Test System: AMES SALMONELLA TYPHIMURIUM, Strain/Indicator: TA1535, Metabolic Activation: HAMSTER, LIVER, S-9, AROCLOR 1254 (30%), Method: PREINCUBATION", "value": "inactive; negative"}, {"measurement": "mutagenic call", "setting": "Test System: AMES SALMONELLA TYPHIMURIUM, Strain/Indicator: TA1535, Metabolic Activation: NONE, Method: PREINCUBATION", "value": "inactive; negative"}, {"measurement": "mutagenic call", "setting": "Test System: AMES SALMONELLA TYPHIMURIUM, Strain/Indicator: TA1535, Metabolic Activation: RAT, LIVER, S-9, AROCLOR 1254 (10%), Method: PREINCUBATION", "value": "inactive; negative"}, {"measurement": "mutagenic call", "setting": "Test System: AMES SALMONELLA TYPHIMURIUM, Strain/Indicator: TA1535, Metabolic Activation: RAT, LIVER, S-9, AROCLOR 1254 (30%), Method: PREINCUBATION", "value": "inactive; negative"}]}, {"smiles": "COc1cc2c(CCNC(C)=O)c[nH]c2cc1O", "values": [{"measurement": "mutagenic call", "setting": "Test System: AMES SALMONELLA TYPHIMURIUM, Strain/Indicator: TA97, Metabolic Activation: NONE, Method: STANDARD PLATE", "value": "inactive; negative"}, {"measurement": "mutagenic call", "setting": "Test System: AMES SALMONELLA TYPHIMURIUM, Strain/Indicator: TA97, Metabolic Activation: RAT, LIVER, S-9, AROCLOR 1254, Method: STANDARD PLATE", "value": "inactive; negative"}, {"measurement": "mutagenic call", "setting": "[2]", "value": "inactive; negative"}, {"measurement": "mutagenic call", "setting": "Test System: AMES SALMONELLA TYPHIMURIUM, Strain/Indicator: TA98, Metabolic Activation: RAT, LIVER, S-9, AROCLOR 1254, Method: STANDARD PLATE", "value": "inactive; negative"}, {"measurement": "mutagenic call", "setting": "[3]", "value": "inactive; negative"}, {"measurement": "mutagenic call", "setting": "Test System: AMES SALMONELLA TYPHIMURIUM, Strain/Indicator: TA100, Metabolic Activation: RAT, LIVER, S-9, AROCLOR 1254, Method: STANDARD PLATE", "value": "inactive; negative"}]}, {"smiles": "Cc1ccc(C)c(C)c1C", "values": [{"measurement": "mutagenic call", "setting": "Test System: AMES SALMONELLA TYPHIMURIUM, Strain/Indicator: TA97A, Metabolic Activation: NONE, Method: STANDARD PLATE", "value": "inactive; negative"}, {"measurement": "mutagenic call", "setting": "Test System: AMES SALMONELLA TYPHIMURIUM, Strain/Indicator: TA97A, Metabolic Activation: RAT LIVER S-9, AROCLOR 1254, Method: STANDARD PLATE", "value": "inactive; negative"}, {"measurement": "mutagenic call", "setting": "[2]", "value": "inactive; negative"}, {"measurement": "mutagenic call", "setting": "Test System: AMES SALMONELLA TYPHIMURIUM, Strain/Indicator: TA98, Metabolic Activation: RAT LIVER S-9, AROCLOR 1254, Method: STANDARD PLATE", "value": "inactive; negative"}, {"measurement": "mutagenic call", "setting": "[3]", "value": "inactive; negative"}, {"measurement": "mutagenic call", "setting": "Test System: AMES SALMONELLA TYPHIMURIUM, Strain/Indicator: TA100, Metabolic Activation: RAT LIVER S-9, AROCLOR 1254, Method: STANDARD PLATE", "value": "inactive; negative"}, {"measurement": "mutagenic call", "setting": "Test System: AMES SALMONELLA TYPHIMURIUM, Strain/Indicator: TA102, Metabolic Activation: NONE, Method: STANDARD PLATE", "value": "inactive; negative"}, {"measurement": "mutagenic call", "setting": "Test System: AMES SALMONELLA TYPHIMURIUM, Strain/Indicator: TA102, Metabolic Activation: RAT LIVER S-9, AROCLOR 1254, Method: STANDARD PLATE", "value": "inactive; negative"}]}]}
